From the METLIN SMRT retention time set (Domingo-Almenara et al. 2019) come the findings set out here.

A short description of this data set: gradient 5% acetonitrile 3 min, to 50% in 2 min, to 85% in 15 min, held 3 min, 100 µL/min. The settings on record: column: Zorbax Extend-C18 2.1 x 50 mm; eluents: water / acetonitrile, 0.1% formic acid. The method in brief: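 The system's dead and dwell volumes were 40 μL and 900 μL, with a Zorbax Extend-C18 column (2.1 × 50 mm, 1.8 μm) run at 100 μL/min in water and acetonitrile containing 0.1% formic acid each. Pure standards were analyzed in mixtures of ~100 molecules by HPLC–quadrupole time-of-flight mass spectrometry in positive and negative ionization mode. Retention time was assigned from computationally picked, manually inspected adduct peaks.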
The molecule `Cc1ccc(CNC(=O)c2nc(-c3ccnc(N4CCCCC4)c3)no2)o1` yielded an RP-LC retention time of 756 s.

Turning to `Cc1c(-c2noc(-c3ccccc3F)n2)nnn1Cc1ccccc1`, the RP-LC retention time turned out to be 1030 s.

`O=C(Nc1cc(F)ccc1F)c1c(O)c2cccnc2n(-c2cccc(F)c2)c1=O` returned an RP-LC retention time of 1260 s.

Molecule `O=C(Nc1nnc(-c2ccc(Cl)s2)o1)c1ccc2ncsc2c1` yielded an RP-LC retention time of 733 s.

In turn, `O=C(C1CCCN(c2nccnc2Sc2ccccc2)C1)N1CCN(c2cccc(Cl)c2)CC1` (centres undefined) displayed an RP-LC retention time of 1260 s.

`CC(=O)N1c2ccc(S(=O)(=O)N3CCCCC3)cc2CC1C(=O)NCCN(C)C1CCCCC1` (centres undefined): the RP-LC retention time worked out at 655 s.

For the molecule `CC1CCN(S(=O)(=O)c2ccc(-c3nnc(C4CC4)o3)o2)CC1`, the RP-LC retention time is 933 s.

In turn, `CCc1ccccc1NC(=O)NCCNC(=O)c1ccc(NC(=O)C2CC2)cc1` had an RP-LC retention time of 657 s.

`COc1cccc(CC(=O)N2CCC3(CC2)NC(=O)c2cc(F)ccc2N3C)c1` returned an RP-LC retention time of 758 s.

Molecule `COc1ccc(CCc2nc(-c3ccc4oc(C)nc4c3)no2)cc1` yielded an RP-LC retention time of 1210 s.

The molecule `CC(C)CCNC(=O)C1(C)Cn2nc(C(=O)NCc3ccc(N(C)C)cc3)cc2C(=O)N1C` (centres undefined) displayed an RP-LC retention time of 619 s.

In the case of `CCCNC(=O)CCc1c(-c2ccc(Br)cc2)nc2ccccn12`, the RP-LC retention time was 624 s.

In the case of `O=C(CCc1nc(CSc2nnc(-c3ccccc3)o2)no1)Nc1ccc(F)c(Cl)c1`, the RP-LC retention time turned out to be 973 s.

The molecule `O=C(Nc1ccc2c(c1)OCO2)C1CCN(S(=O)(=O)c2cc(C(=O)N3CCCC3)cs2)CC1` gave an RP-LC retention time of 770 s.

Take `Cc1oc(-c2[nH]ncc2C(=O)N2CCCC2)cc1S(=O)(=O)NCc1cccnc1`: the RP-LC retention time turned out to be 574 s.

Molecule `Cc1sc(NC(=O)c2ccccc2Cl)nc1-c1ccc2c(c1)N(C)C(=O)CO2` showed an RP-LC retention time of 968 s.

`COc1ccc(-c2cc3n(n2)CCCN(C(=O)c2ccc4nc[nH]c4c2)C3)cc1` gave an RP-LC retention time of 614 s.

Molecule `COc1ccc(-c2noc(C3CC(=O)N(c4ccc(C)c(C)c4)C3)n2)cc1` (centres undefined) yielded an RP-LC retention time of 1050 s.

`O=C(Nc1cccc(Br)c1)C1CCN(c2nccnc2Sc2ccccc2)CC1` returned an RP-LC retention time of 1190 s.

`Cc1cc(C)c2nc(Nc3nccc(C)n3)nc(C)c2c1` displayed an RP-LC retention time of 640 s.

For `Cc1ccc(-c2cc(N3CCN(C(=O)c4cc(C)cc(C)c4)CC3)ncn2)cc1`, the RP-LC retention time came out at 731 s.

`O=C(O)CCc1ccc(NCc2cccc(Oc3ccccc3)c2)cc1` had an RP-LC retention time of 1040 s.

Molecule `CCN1C(=O)CCc2cc(NC(=O)Cc3cccc(OC)c3)ccc21` gave an RP-LC retention time of 757 s.

The molecule `CC1Cc2ccccc2N1C(=O)c1ccc(=O)n(CCC(=O)N2CCCCCC2)n1` (centres undefined) registered an RP-LC retention time of 814 s.

Molecule `Cc1c(CNCc2ccco2)c(C(=O)O)c(C)n1Cc1cccc(F)c1` came in with an RP-LC retention time of 684 s.

Regarding `Cc1ccc(Nc2nc(C)cc(N3CCN(S(=O)(=O)c4cc(F)ccc4F)CC3)n2)cc1`, the RP-LC retention time is 797 s.

Molecule `COc1ccccc1CNC(=O)C1CCN(S(=O)(=O)c2cn(C(C)C)cn2)CC1` returned an RP-LC retention time of 733 s.

In the case of `CCN1c2ccc(C)cc2C(=O)NC12CCN(C(=O)Cc1ccc(Cl)cc1)CC2`, the RP-LC retention time came out at 919 s.

For the molecule `O=C(NCc1cccc(F)c1)C1CCN(c2cncnc2N2CCOCC2)CC1`, the RP-LC retention time was 614 s.

`CC(=O)Nc1ccc(-n2cnc(C(=O)NC(C)c3ccc(F)cc3)c2)nc1` (centres undefined) gave an RP-LC retention time of 701 s.

Molecule `Cc1ccccc1Nc1c(-c2ccc(O)cc2)nc2ccccn12` showed an RP-LC retention time of 653 s.

Turning to `O=C(NCCCN1CCCCCC1)C(c1ccccc1)C1CCCCC1` (centres undefined), the RP-LC retention time came out at 875 s.

As for `O=S(=O)(c1ccccc1F)N1CC(n2cnnc2-c2ccccc2)C1`, the RP-LC retention time was found to be 671 s.

The molecule `COc1ccc(Cl)cc1C(=O)NCC(c1ccsc1)N1CCCC1` (centres undefined) gave an RP-LC retention time of 582 s.

`CCn1c(CCNC(=O)c2ccc3ccccc3n2)nc2cccnc21` had an RP-LC retention time of 685 s.

`COc1ccc(CN(Cc2ccccc2)Cc2cc(=O)n3cc(C)ccc3n2)cc1OC` returned an RP-LC retention time of 616 s.

The molecule `CCCCNc1c(C(=O)OC)c(=O)[nH]c2ccc(F)cc12` registered an RP-LC retention time of 734 s.

As for `COc1ccc(C(O)CN2CCN(c3ccccc3F)CC2)cc1` (centres undefined), the RP-LC retention time worked out at 660 s.

In turn, `CCn1cc(CCNC(=O)C(C)C)c2cccnc21` registered an RP-LC retention time of 612 s.

On to `COc1nc2ccccc2nc1N1CCCC(C(=O)N2CCCC2)C1` (centres undefined), for which the RP-LC retention time came out at 856 s.

In turn, `Cc1ccc(C)c(-c2csc(Nc3ccccn3)n2)c1` registered an RP-LC retention time of 821 s.

Molecule `O=C(CCC(=O)N1CCSc2ccccc21)N1CCN(c2ccccn2)CC1` came in with an RP-LC retention time of 618 s.

`CCOC(=O)c1noc2nc(C)nc(NCc3ccc(F)cc3)c12`: the RP-LC retention time was found to be 1030 s.

In turn, `CCC(=O)N1CCc2cc(N3CC(C(=O)Nc4ccc(C)cc4F)CC3=O)ccc21` (centres undefined) returned an RP-LC retention time of 778 s.

On to `Cn1c(=O)sc2cc(S(=O)(=O)N3CCC(C(=O)NCCCc4ccccc4)CC3)ccc21`, for which the RP-LC retention time turned out to be 867 s.

`CCCC(=O)NC1CCN(c2cc(C)cc(C)c2)C1=O` (centres undefined) displayed an RP-LC retention time of 750 s.

`CCOc1ccc(/C=C/C(=O)Nc2nc(-c3ccc4c(c3)NC(=O)C(C)O4)c(C)s2)cc1OC` (centres undefined) displayed an RP-LC retention time of 980 s.

Regarding `COc1ccc(-c2nc3cnc(Br)cn3c2Nc2ccc3c(c2)OCCO3)cc1`, the RP-LC retention time was 900 s.

Molecule `CCOC(=O)Cn1cccc(S(=O)(=O)N2CCC(C)CC2)c1=O` had an RP-LC retention time of 814 s.

In turn, `Cn1nccc1-c1cccc(-c2noc(CNC(=O)Cc3ccc(Cl)cc3)n2)c1` came in with an RP-LC retention time of 871 s.

As for `COc1ccc(CNC(=O)C2CCN(S(C)(=O)=O)c3cc(Cl)ccc3O2)cc1` (centres undefined), the RP-LC retention time came to 877 s.

`CC1CCN(S(=O)(=O)N2CCCC(C(=O)NC3CCN(Cc4ccccc4)CC3)C2)CC1` (centres undefined) displayed an RP-LC retention time of 713 s.

The molecule `C=Cc1ccc(CSc2ccc(-n3nc4c(c3C)CCC4)nn2)cc1` had an RP-LC retention time of 1070 s.

For `CCn1cc(-c2ccc(C)cc2)cc1C(=O)NCC1CCCO1` (centres undefined), the RP-LC retention time worked out at 614 s.

`Cc1ccc(C(=O)N[C@@H]2CN(S(C)(=O)=O)C[C@H]2CN(C)C)s1` displayed an RP-LC retention time of 582 s.

On to `CCOC(=O)c1ccccc1NC(=O)Cn1nc2c(Sc3ccccc3)nccn2c1=O`, for which the RP-LC retention time was 1060 s.

Molecule `C[C@H](NC(=O)C1CCN(S(=O)(=O)c2ccccc2)CC1)C(=O)O` registered an RP-LC retention time of 643 s.

Turning to `O=C(N[C@H]1C[C@@H]2C[C@H]1CN2S(=O)(=O)c1cccc2nsnc12)c1ccccc1`, the RP-LC retention time turned out to be 722 s.

As to `CCCNS(=O)(=O)c1cc(-c2nc(C)cs2)n(CC(=O)N2CCCCC2)c1`, the RP-LC retention time was found to be 869 s.

In turn, `NC(=O)c1oc2ccccc2c1NC(=O)C(=O)NCc1ccc2c(c1)OCO2` came in with an RP-LC retention time of 758 s.

As to `CC1(c2noc(C3CCOCC3)n2)CCN(Cc2c(F)cccc2Cl)CC1`, the RP-LC retention time was found to be 612 s.

`COc1ccc2[nH]cc(CCNC(=O)CCc3c(C)nc4c(c3C)c(=O)n(C)c(=O)n4C)c2c1` showed an RP-LC retention time of 788 s.

Molecule `O=C(NCCc1cccs1)C1CCCN(c2ncnc3c2oc2ccccc23)C1` (centres undefined) had an RP-LC retention time of 764 s.

`Cc1cccc(Oc2nccnc2N2CCC(C(=O)NC3CCCCCC3)CC2)c1`: the RP-LC retention time worked out at 1110 s.

The molecule `COc1ccc(-c2nnc(-c3ccc(C)c(S(=O)(=O)Nc4cccnc4)c3)o2)cc1OC` had an RP-LC retention time of 722 s.

In the case of `COc1ccc(-c2c(C(=O)Nc3ccccc3OC)nc3ccccn23)cc1`, the RP-LC retention time was determined as 991 s.

Molecule `Cc1ccccc1CC(=O)N1CCC2(CC1)NC(=O)c1cc(F)ccc1N2C` returned an RP-LC retention time of 787 s.

Molecule `COc1ccc(-c2csc(SCc3ccc(C(=O)N4CCOCC4)o3)n2)cc1OC` displayed an RP-LC retention time of 783 s.

In turn, `O=C(NCc1csc(-c2cccs2)n1)C1CCN(C(=O)c2c(F)cccc2F)CC1` showed an RP-LC retention time of 769 s.

`COc1ccc(C2Cn3nnc(-c4nc(-c5ccsc5)no4)c3CO2)cc1` (centres undefined) displayed an RP-LC retention time of 1070 s.

The molecule `COc1ccc2[nH]c(=O)c(CCC(=O)Nc3ccc(OC)c(OC)c3)cc2c1` gave an RP-LC retention time of 666 s.

Regarding `O=C(COc1ccc(F)cc1)Nc1cnc(N2CCCCCC2)nc1`, the RP-LC retention time came out at 957 s.

`COc1ccccc1C(=O)N1CCCC(COc2ccc(C(=O)NC(C)C)cc2)C1` (centres undefined) showed an RP-LC retention time of 830 s.

`CCCNC(=O)C1CCCN(c2ccc(SCC(=O)Nc3cccc(Cl)c3)nn2)C1` (centres undefined): the RP-LC retention time is 683 s.

In the case of `CC1CN(Cc2ccccc2)c2nc3c(c(=O)n(CCN4CCOCC4)c(=O)n3C)n2C1` (centres undefined), the RP-LC retention time came to 666 s.

`O=C1C2N=NN(Cc3nc(-c4cccc(Cl)c4)no3)C2C(=O)N1c1ccc2c(c1)CCC2` (centres undefined) gave an RP-LC retention time of 1130 s.

`Cc1ccc(NC(=O)Cn2c(N3CCOCC3)nc(C)cc2=O)c(C)c1` displayed an RP-LC retention time of 658 s.

Take `CC1CN(c2nc(-c3ccc([N+](=O)[O-])cc3)nc3ccccc23)CC(C)O1` (centres undefined): the RP-LC retention time stood at 1030 s.

On to `CC(C(=O)NCCN1CCOCC1)C1CCN(C(=O)c2cc3cc(Cl)ccc3[nH]2)CC1` (centres undefined), for which the RP-LC retention time worked out at 589 s.
